IC50 data for 20 compounds are collected here from US20250282785A1, “PYRROLIDINONE DERIVATIVES AS INHIBITORS OF NF KAPPA B INDUCING KINASE” (priority 2022, published 2025).

For assay [1], the target named is Recombinant Human NF-Kappab-Inducing Kinase (NIK/MAP3K14) (Homo sapiens, UniProt Q99558). The assay is described as follows: Inhibition of auto-phosphorylation of recombinant human NIK/MAP3K14 (AlphaScreen). In kind it is biochemical. As to conditions: NIK/MAP3K14 auto-phosphorylation, 5 microM ATP, 1 nM enzyme, 2 h at 25° C.; average of values; read-out: Assay 1 IC50. Put shortly:
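GST-tagged NIK (1 nM) auto-phosphorylation with 5 µM ATP in Tris pH 7.5/MgCl2 buffer, 0.7% DMSO, 2 h at 25 °C. Phospho-IKK Ser176/180 antibody detected by AlphaScreen beads. Signal normalized to full-enzyme and no-ATP controls; IC50 from sigmoidal fit of % inhibition vs log concentration.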
(In Alpha technology, singlet oxygen from a donor bead excites a nearby acceptor bead.)

Assay [2] deals with p-IKKα levels in L363 (NIK translocated multiple myeloma) cells. Briefly: Effect of compounds on p-IKKα levels in L363 cells (AlphaLISA SureFire Ultra). To be noted: Homo sapiens, L-363; L363 cells, BAFF stimulated, MG132, 6 h; average of values; read-out: Assay 2 IC50. In kind it is cell-based. The gist of the method: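 L363 myeloma cells were BAFF-stimulated (250 ng/ml) overnight in DMEM/0.5% BSA, then exposed 6 h at 37° C to compound (11-point 1:3 series, 0.3% DMSO) with BAFF plus 10 uM MG132. p-IKKα (Ser 176/180) was read by AlphaLISA SureFire Ultra in lysates. IC50 came from sigmoidal fits normalized to stimulated and unstimulated controls.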

Recombinant Human NF-Kappab-Inducing Kinase (NIK/MAP3K14), sequence (Q99558 whole entry): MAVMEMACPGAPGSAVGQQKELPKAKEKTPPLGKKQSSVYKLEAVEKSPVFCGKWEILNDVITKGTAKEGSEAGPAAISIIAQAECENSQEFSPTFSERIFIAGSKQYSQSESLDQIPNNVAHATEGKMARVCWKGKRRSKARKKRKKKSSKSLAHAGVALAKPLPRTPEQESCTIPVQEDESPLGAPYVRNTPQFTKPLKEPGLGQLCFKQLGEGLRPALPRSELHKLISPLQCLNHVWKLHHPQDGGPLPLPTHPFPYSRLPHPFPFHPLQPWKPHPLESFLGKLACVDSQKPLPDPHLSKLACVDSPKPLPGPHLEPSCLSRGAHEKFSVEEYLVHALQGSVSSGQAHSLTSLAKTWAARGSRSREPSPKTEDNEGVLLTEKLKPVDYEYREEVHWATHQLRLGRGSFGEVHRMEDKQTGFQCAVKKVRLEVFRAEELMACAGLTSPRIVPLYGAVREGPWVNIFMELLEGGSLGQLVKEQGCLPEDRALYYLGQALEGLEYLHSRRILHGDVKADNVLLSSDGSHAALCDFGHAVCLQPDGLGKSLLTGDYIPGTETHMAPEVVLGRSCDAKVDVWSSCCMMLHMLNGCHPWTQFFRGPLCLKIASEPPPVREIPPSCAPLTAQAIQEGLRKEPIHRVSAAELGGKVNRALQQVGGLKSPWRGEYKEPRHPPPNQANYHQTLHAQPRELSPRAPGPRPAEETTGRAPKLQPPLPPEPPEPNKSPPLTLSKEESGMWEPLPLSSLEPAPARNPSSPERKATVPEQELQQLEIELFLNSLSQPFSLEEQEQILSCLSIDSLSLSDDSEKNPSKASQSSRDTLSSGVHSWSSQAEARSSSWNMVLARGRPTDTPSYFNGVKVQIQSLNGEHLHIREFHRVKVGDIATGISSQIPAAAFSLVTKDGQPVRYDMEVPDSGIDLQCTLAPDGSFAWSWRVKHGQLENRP

What is called IC50 is the concentration that inhibits the measured activity by half. Turning to `CN1CC[C@@](O)(c2cc(-c3cccc(-c4cc(C5CC5)c(N)c(C(N)=O)n4)c3)no2)C1=O` [Example 88, (R)-3-Amino-4-cyclopropyl-6-(3-(5-(3-hydroxy-1-methyl-2-oxopyrrolidin-3-yl)isoxazol-3-yl)phenyl)picolinamide], the IC50 in assay [1] and in assay [2] was under 100 nM each time.
Consider `CN1CC[C@@](O)(c2cc(-c3cccc(-c4nc(C(N)=O)c(N)cc4F)c3)no2)C1=O` [Example 89, (R)-3-Amino-5-fluoro-6-(3-(5-(3-hydroxy-1-methyl-2-oxopyrrolidin-3-yl)isoxazol-3-yl)phenyl)picolinamide], for which the IC50 in assay [1] was under 100 nM; in assay [2], 100 to 500 nM.
In the case of `CCn1cnc2c(C(N)=O)nc(-c3cccc(-c4cc([C@]5(O)CCN(C)C5=O)on4)c3)cc21` [Example 90, (R)-1-Ethyl-6-(3-(5-(3-hydroxy-1-methyl-2-oxopyrrolidin-3-yl)isoxazol-3-yl)phenyl)-1H-imidazo[4,5-c]pyridine-4-carboxamide], the IC50 is 100 to 500 nM in assay [1] and over 501 nM in assay [2].
On to `CN1CC[C@@](O)(c2cc(-c3cccc(-c4cc(C(F)(F)F)cc(C(N)=O)n4)c3)no2)C1=O` [Example 91, (R)-6-(3-(5-(3-Hydroxy-1-methyl-2-oxopyrrolidin-3-yl)isoxazol-3-yl)phenyl)-4-(trifluoromethyl)picolinamide], for which the IC50 in assay [1] was under 100 nM; in assay [2], 100 to 500 nM.
Turning to `CN1CC[C@@](O)(c2cc(-c3cccc(-c4cn5cccc(C(N)=O)c5n4)c3)no2)C1=O` [Example 92, (R)-2-(3-(5-(3-Hydroxy-1-methyl-2-oxopyrrolidin-3-yl)isoxazol-3-yl)phenyl) imidazo[1,2-a]pyridine-8-carboxamide], the figures for the IC50 in assay [1] and in assay [2] were 100 to 500 nM and over 501 nM, respectively.
For `CN1CC[C@@](O)(c2cc(-c3cccc(-c4nc(C(N)=O)n5c4CCCC5)c3)no2)C1=O` [Example 93, (R)-1-(3-(5-(3-Hydroxy-1-methyl-2-oxopyrrolidin-3-yl)isoxazol-3-yl)phenyl)-5,6,7,8-tetrahydroimidazo[1,5-a]pyridine-3-carboxamide], in that order: under 100 nM and under 100 nM.
`CN1CC[C@@](O)(c2cc(-c3cccc(-c4cc(C(N)=O)nc5[nH]ccc45)c3)no2)C1=O` [Example 94, (R)-4-(3-(5-(3-Hydroxy-1-methyl-2-oxopyrrolidin-3-yl)isoxazol-3-yl)phenyl)-1H-pyrrolo[2,3-b]pyridine-6-carboxamide]: the IC50 in assay [1] and in assay [2] was over 501 nM in each case.
With `CN1CC[C@@](O)(c2cc(-c3cccc(-n4nc(C(=O)O)c5c4CCCC5)c3)no2)C1=O` [Example 95, (R)-1-(3-(5-(3-Hydroxy-1-methyl-2-oxopyrrolidin-3-yl)isoxazol-3-yl)phenyl)-4,5,6,7-tetrahydro-1H-indazole-3-carboxylic acid], the IC50 in assay [1] and in assay [2] was over 501 nM each time.
With `CN1CC[C@@](O)(c2cc(-c3cccc(-c4cc(N)c5nc[nH]c(=O)c5n4)c3)no2)C1=O` [Example 96, (R)-8-Amino-6-(3-(5-(3-hydroxy-1-methyl-2-oxopyrrolidin-3-yl)isoxazol-3-yl)phenyl)pyrido[3,2-d]pyrimidin-4(3H)-one], the results for the IC50 in assay [1] and in assay [2] were under 100 nM and over 501 nM, respectively.
On to `CN1CC[C@@](O)(c2cc(-c3cccc(-c4cc5[nH]cnc5c(C(N)=O)n4)c3)no2)C1=O` [Example 97, (R)-6-(3-(5-(3-Hydroxy-1-methyl-2-oxopyrrolidin-3-yl)isoxazol-3-yl)phenyl)-1H-imidazo[4,5-c]pyridine-4-carboxamide], for which the figures for the IC50 in assay [1] and in assay [2] were under 100 nM and 100 to 500 nM, respectively.
For `CN1CC[C@@](O)(c2cc(-c3cccc(-c4nc(C(N)=O)cc(C(F)(F)F)n4)c3)no2)C1=O` [Example 98, (R)-2-(3-(5-(3-Hydroxy-1-methyl-2-oxopyrrolidin-3-yl)isoxazol-3-yl)phenyl)-6-(trifluoromethyl)pyrimidine-4-carboxamide] the same measures were under 100 nM and over 501 nM.
For `CN1CC[C@@](O)(c2cc(-c3cccc(-n4nc(C(N)=O)c5cc(-c6ccn(C)n6)ccc54)c3)no2)C1=O` [Example 99, (R)-1-(3-(5-(3-Hydroxy-1-methyl-2-oxopyrrolidin-3-yl)isoxazol-3-yl)phenyl)-5-(1-methyl-1H-pyrazol-3-yl)-1H-indazole-3-carboxamide] the same measures were under 100 nM and under 100 nM.
For `CN1CC[C@@](O)(c2cc(-c3cccc(-c4cc(N5CC(F)(F)C5)cc(C(N)=O)n4)c3)no2)C1=O` [Example 100, (R)-4-(3,3-Difluoroazetidin-1-yl)-6-(3-(5-(3-hydroxy-1-methyl-2-oxopyrrolidin-3-yl)isoxazol-3-yl)phenyl)picolinamide], in that order: under 100 nM and over 501 nM.
For the compound `CN1CC[C@@](O)(c2cc(-c3cccc(-n4nc(C(N)=O)c5cc(F)ccc54)c3)no2)C1=O` [Example 101, (R)-5-Fluoro-1-(3-(5-(3-hydroxy-1-methyl-2-oxopyrrolidin-3-yl)isoxazol-3-yl)phenyl)-1H-indazole-3-carboxamide], the IC50 was under 100 nM in assay [1] and 100 to 500 nM in assay [2].
For the compound `CN1CC[C@@](O)(c2cc(-c3cccc(-n4nc(C(N)=O)c5c4CCCC5)c3)no2)C1=O` [Example 102, (R)-1-(3-(5-(3-Hydroxy-1-methyl-2-oxopyrrolidin-3-yl)isoxazol-3-yl)phenyl)-4,5,6,7-tetrahydro-1H-indazole-3-carboxamide], the IC50 in assay [1] is under 100 nM; in assay [2], over 501 nM.
For `COc1ccc2c(c1)c(C(N)=O)nn2-c1cccc(-c2cc([C@]3(O)CCN(C)C3=O)on2)c1` [Example 103, (R)-1-(3-(5-(3-Hydroxy-1-methyl-2-oxopyrrolidin-3-yl)isoxazol-3-yl)phenyl)-5-methoxy-1H-indazole-3-carboxamide] the same measures were under 100 nM and under 100 nM.
For `CNc1ccc(-c2cccc(-c3cc([C@]4(O)CCN(C)C4=O)on3)c2)nc1C(N)=O` [Example 104, (R)-6-(3-(5-(3-Hydroxy-1-methyl-2-oxopyrrolidin-3-yl)isoxazol-3-yl)phenyl)-3-(methylamino)picolinamide] the same measures were under 100 nM and under 100 nM.
`CN1CC[C@@](O)(c2cc(-c3cccc(-c4ncc(NC5COC5)c(C(N)=O)n4)c3)no2)C1=O` [Example 105, (R)-2-(3-(5-(3-Hydroxy-1-methyl-2-oxopyrrolidin-3-yl)isoxazol-3-yl)phenyl)-5-(oxetan-3-ylamino)pyrimidine-4-carboxamide]: the IC50 in assay [1] and in assay [2] was under 100 nM each time.
Consider `CN1CC[C@@](O)(c2cc(-c3cccc(-c4ccc(NCC5COC5)c(C(N)=O)n4)c3)no2)C1=O` [Example 106, (R)-6-(3-(5-(3-Hydroxy-1-methyl-2-oxopyrrolidin-3-yl)isoxazol-3-yl)phenyl)-3-((oxetan-3-ylmethyl)amino)picolinamide], for which the IC50 was under 100 nM in assay [1] and 100 to 500 nM in assay [2].
For `CN1CC[C@@](O)(c2cc(-c3cccc(-c4ncc(NCC5COC5)c(C(N)=O)n4)c3)no2)C1=O` [Example 107, (R)-2-(3-(5-(3-Hydroxy-1-methyl-2-oxopyrrolidin-3-yl)isoxazol-3-yl)phenyl)-5-((oxetan-3-ylmethyl)amino)pyrimidine-4-carboxamide], the IC50 in assay [1] and in assay [2] was under 100 nM in each case.
